US20060035314A1, “Receptors and signalling proteins capable of binding meiotic acting sterols (MAS)” (priority 2000, published 2006)

Tested on: Mouse Oocytes
Assay: Microinjection of antisense/sense oligonucleotides into mouse oocytes; FF-MAS-triggered resumption of meiosis (GVBD)
Assay type: cell-based
Details: 10 μM FF-MAS (24 hours); added 20 hours after injection of approx. 12 pg of each oligonucleotide; hypoxanthine containing medium
Source text: Two antisense oligonucleotides (20 nucleotides) were utilized for microinjection: 5′-[…]-3′ and 5′-[…]-3′, complementary to the kozak sequence of the mRNA encoded by the cDNA sequence herein designated SAM1a and SAM1b, respectively, both of which are defined in SEQ ID NO: 1 and SEQ ID NO: 3, respectively, shown below. In control experiments, the corresponding sense oligonucleotides were microinjected: 5′-[…]-3′ and 5′-[…]-3′ for mRNA SAM1a and SAM1b, respectively. SAM1a antisense was co-injected with SAM1b antisense from a stock solution containing 1.25 μg/μl of each nucleotide in 10% human serum albumin (hereinafter designated HSA) plus 5 mM Tris (pH value: 7.5). SAM1a sense was co-injected with SAM1b sense from a stock solution containing 1.25 μg/μl of each nucleotide in 10% HSA plus 5 mM Tris (pH value: 7.5). Approximately 12 pg of each oligonucleotide ([…]) were injected into the cytoplasma of individual germinal vesicle (GV)-stage oocytes loaded in a droplet of alpha-MEM supplemented with 0.8% HSA and 3 mM hypoxantine under mineral oil in a 35 mm petri dish on the stage of an inverted microscope. […] The effect of FF-MAS was evaluated after 24 hours of further incubation as the number of oocytes in germinal vesicle breakdown (hereinafter designated GVBD). […]

SMILES: CC(C)=CCC[C@@H](C)[C@H]1CC=C2C3=C(CC[C@@]21C)[C@@]1(C)CC[C@H](O)C(C)(C)[C@@H]1CC3 [FF-MAS, 4,4-dimethyl-5α-cholesta-8,14,24-triene-3β-ol]
- GVBD/GVBD + GV: 26/29
